How the values were obtained:
[1] = test system: acetylation state of α-Tubulin and histones (H3K9 and H4K12); assay: Acetylation level assay (Western blot) in human iPSC-derived neural progenitor cells; format: cell-based; conditions: ACY1215 5 μM, other compounds 10 μM; 6 h at 37° C.
[2] = target: T1, HDAC6 (Rattus norvegicus (Rat), UniProt A0A8I6GM68); assay: Autoradiography competition with radiolabeled Example 2 on rat brain slices; format: binding, Sprague-Dawley rat
Procedure: Sagittal slices of Sprague-Dawley rat brains were sectioned (10 μm) with a cryostat (Thermo Scientific HM550) and mounted onto ColorFrost Plus microscope slides (Fisher Scientific 12-550-18) and stored at −20° C. […] After 15 min, 50 μCi of the radiolabeled compound of Example 2 was added to each bath. After 15 minutes, all slides were washed by dipping 10× into buffer and subsequently submerged in 50 mL baths of buffer at 4° C. for 5 minutes. The slides were dried at 35° C. in a vacuum chamber. A phosphorus screen (Perkin Elmer 7001723) was exposed with the slides for 45 minutes and subsequently imaged with a Cyclone Plus Storage Phosphor (Perkin Elmer) detector. ImageJ was used to apply a Gaussian blur (3.0 radius) smoothing and a lookup table (Royal) with equivalent thresholds for brightness was applied. Raw intensity values from gray and white matter were quantified with the ImageJ measurement tool.

[3] = target: T1, HDAC6; assay: PET/CT imaging in rats with radiolabeled Example 2; format: in vivo, Sprague-Dawley rats
Procedure: 8 male Sprague-Dawley rats (Charles River Laboratories) were used for PET imaging. […] For intravenous administration, a catheter with an extension line was placed in a lateral tail vein. Each animal received a bolus injection of either vehicle (1:1:8 DMSO/Tween80/saline) or blocking agent in solution (1 mg/kg, 1 mg/mL in 1:1:8 DMSO/Tween80/saline) immediately prior to injection of the radiotracer.
After injection of a radiotracer bolus (˜700 ρCi Example 2) a 90 min dynamic PET scan was acquired in pairs for all animals. PET scans were performed on a GammaMedica Triumph PET/CT/SPECT scanner, corrected for attenuation with a μ-map derived from the corresponding CT image, which was acquired immediately following the PET scan. The dynamic PET data was binned into 38 timeframes (8×15 s, 8×1 min, 10×2 min, 12×5) and reconstructed individually via an iterative MLEM (maximum likelihood expectation maximization) algorithm in 16 iterations.
PET images were coregistered to the CT image acquired from the same animal using AMIDE Data sets were cropped and all further image analysis was conducted using PMOD 3.3 (PMOD Technologies, Zurich, Switzerland). For maximum consistency, the data were coregistered to the Schiffer Px Rat rat brain template and data was derived from a whole brain VOI (volumes of interest) for time activity curves.

[4] = Microsome stability; conditions: hu
[5] = Hepatocyte stability; conditions: hu
[6] = target: HDAC6 (Homo sapiens (Human), UniProt Q9UBN7); assay: HDAC IC50 assay by Nanosyn (Caliper microfluidics mobility shift detection); format: biochemical
HDAC6 (Homo sapiens (Human), UniProt Q9UBN7), sequence (Q9UBN7 whole entry): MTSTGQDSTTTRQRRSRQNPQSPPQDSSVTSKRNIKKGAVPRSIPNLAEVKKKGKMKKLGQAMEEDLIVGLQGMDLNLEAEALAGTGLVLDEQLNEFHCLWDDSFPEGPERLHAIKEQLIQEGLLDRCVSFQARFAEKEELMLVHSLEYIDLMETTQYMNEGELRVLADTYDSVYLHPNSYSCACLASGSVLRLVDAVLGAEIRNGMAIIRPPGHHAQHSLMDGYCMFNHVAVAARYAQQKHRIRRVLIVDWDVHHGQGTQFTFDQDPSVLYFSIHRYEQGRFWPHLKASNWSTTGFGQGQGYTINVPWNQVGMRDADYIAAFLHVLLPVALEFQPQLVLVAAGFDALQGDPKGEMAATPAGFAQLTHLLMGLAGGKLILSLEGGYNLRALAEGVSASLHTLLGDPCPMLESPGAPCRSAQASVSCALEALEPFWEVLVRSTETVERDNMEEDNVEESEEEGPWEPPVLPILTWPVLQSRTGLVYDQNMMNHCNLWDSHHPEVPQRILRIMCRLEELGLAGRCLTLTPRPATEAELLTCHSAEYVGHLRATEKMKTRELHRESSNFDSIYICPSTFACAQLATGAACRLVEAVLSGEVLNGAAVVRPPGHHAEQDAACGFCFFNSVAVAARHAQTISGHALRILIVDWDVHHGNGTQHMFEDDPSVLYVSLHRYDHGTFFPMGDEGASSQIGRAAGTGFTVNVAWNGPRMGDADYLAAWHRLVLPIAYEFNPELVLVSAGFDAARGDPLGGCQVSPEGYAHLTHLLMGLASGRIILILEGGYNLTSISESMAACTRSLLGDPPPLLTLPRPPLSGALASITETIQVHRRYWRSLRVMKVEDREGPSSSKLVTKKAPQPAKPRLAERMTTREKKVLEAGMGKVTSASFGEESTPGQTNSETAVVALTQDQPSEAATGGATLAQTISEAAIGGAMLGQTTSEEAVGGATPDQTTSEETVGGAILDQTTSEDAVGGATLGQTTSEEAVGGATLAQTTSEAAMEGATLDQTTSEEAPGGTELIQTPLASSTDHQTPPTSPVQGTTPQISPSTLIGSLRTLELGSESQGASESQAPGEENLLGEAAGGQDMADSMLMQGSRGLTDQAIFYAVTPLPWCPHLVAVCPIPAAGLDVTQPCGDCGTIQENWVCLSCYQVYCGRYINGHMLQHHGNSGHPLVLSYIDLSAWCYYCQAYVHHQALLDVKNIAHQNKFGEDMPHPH

T1 sequence (A0A8I6GM68 whole entry): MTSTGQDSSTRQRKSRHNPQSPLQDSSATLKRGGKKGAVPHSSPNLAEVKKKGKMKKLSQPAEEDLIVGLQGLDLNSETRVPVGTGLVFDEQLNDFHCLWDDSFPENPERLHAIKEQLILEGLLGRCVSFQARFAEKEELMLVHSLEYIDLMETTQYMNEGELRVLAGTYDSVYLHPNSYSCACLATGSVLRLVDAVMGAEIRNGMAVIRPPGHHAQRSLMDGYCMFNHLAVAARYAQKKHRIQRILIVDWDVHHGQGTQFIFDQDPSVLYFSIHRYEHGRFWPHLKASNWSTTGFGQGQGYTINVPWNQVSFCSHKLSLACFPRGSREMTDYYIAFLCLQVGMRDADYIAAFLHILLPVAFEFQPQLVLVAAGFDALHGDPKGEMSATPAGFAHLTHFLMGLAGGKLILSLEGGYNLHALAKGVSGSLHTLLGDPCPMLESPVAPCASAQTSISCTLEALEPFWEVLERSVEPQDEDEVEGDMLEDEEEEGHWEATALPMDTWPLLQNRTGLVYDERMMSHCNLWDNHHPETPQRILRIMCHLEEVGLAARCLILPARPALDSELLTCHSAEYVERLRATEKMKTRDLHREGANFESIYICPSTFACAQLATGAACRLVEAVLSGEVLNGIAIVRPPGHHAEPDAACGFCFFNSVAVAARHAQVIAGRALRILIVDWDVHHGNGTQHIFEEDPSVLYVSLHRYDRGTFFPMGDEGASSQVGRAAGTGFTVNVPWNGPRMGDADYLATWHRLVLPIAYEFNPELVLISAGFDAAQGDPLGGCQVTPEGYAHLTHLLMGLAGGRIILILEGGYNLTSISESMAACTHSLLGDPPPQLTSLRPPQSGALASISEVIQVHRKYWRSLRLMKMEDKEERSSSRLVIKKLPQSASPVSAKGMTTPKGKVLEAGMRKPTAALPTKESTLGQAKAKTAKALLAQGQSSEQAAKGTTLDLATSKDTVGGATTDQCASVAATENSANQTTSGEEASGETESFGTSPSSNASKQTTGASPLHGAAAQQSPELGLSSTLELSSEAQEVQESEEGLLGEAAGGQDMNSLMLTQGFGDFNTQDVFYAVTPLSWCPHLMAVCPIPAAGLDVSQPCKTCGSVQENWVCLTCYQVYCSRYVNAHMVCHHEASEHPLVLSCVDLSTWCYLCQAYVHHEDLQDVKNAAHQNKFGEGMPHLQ

## O=C(CCCCCCNC(=O)c1cnc(N(c2ccccc2)c2ccccc2)nc1)NO [ACY-1215, ricolinostat]
[1]
  Histone acetylation on H4K12: significantly increased
  amount of cellular acetyl-α-Tubulin: increased

## CC(=O)Nc1ccc(C(=O)Nc2ccccc2N)cc1 [CI-994, tacedinaline]
[1]
  Histone acetylation on H3K9: significantly increased
  Histone acetylation on H4K12: significantly increased
  amount of cellular acetyl-α-Tubulin: did not increase

## CN(Cc1ccc(C(=O)NO)cc1F)CC12CC3CC(CC(C3)C1)C2 [Example 1, 4-(((((3s)-Adamantan-1-yl)methyl)(methyl)amino)methyl)-3-fluoro-N-hydroxybenzamide]
[1]
  Histone acetylation on H3K9: remained unaltered
  Histone acetylation on H4K12: remained unaltered
  amount of cellular acetyl-α-Tubulin: increased
[2]; competitor at 1 μM
  binding of radiolabeled Example 2 to rat brain slices in presence of competitor: significantly reduced
[3]; 1 mg/kg immediately prior to radiotracer
  effect of pretreatment on brain uptake of radiolabeled Example 2: blocking of brain uptake
[3]; 1 mg/kg, 30-minutes post radiotracer administration
  effect on time activity curve of radiolabeled Example 2: clear deflection of the time activity curve
[4]
  Microsome stability (half-life, min): 19 min
[5]
  Hepatocyte stability (half-life, min): 20 (hu) min

## CN(Cc1ccc(C(=O)NO)cc1[18F])CC12CC3CC(CC(C3)C1)C2 [Example 2, 4-((((Adamantan-1-yl)methyl)(methyl)amino)methyl)-3-[^18F]fluoro-N-hydroxybenzamide]
[3]; PET, radiotracer iv bolus
  brain uptake and retention: excellent
[3]; rat, in vivo
  off-rate in preclinical PET: slow

## CC(CC12CC3CC(CC(C3)C1)C2)N(C)Cc1ccc(C(=O)NO)cc1 (centres unmarked) [Example 20]
[6]
  IC50: 290 nM

## CN1CCc2c(c3ccccc3n2Cc2ccc(C(=O)NO)cc2)C1 [Tubastatin A]
[1]
  Histone acetylation on H3K9: remained unaltered
  Histone acetylation on H4K12: remained unaltered
  amount of cellular acetyl-α-Tubulin: increased
[2]; competitor at final concentration of 100 μM
  binding of radiolabeled Example 2 to rat brain slices in presence of competitor: reduce the amount of bound radioactivity to the same background as 10 μM Example 1

Reference: patent US11890356B2 (The General Hospital Corporation, priority 2017, dated 2024)
